Measured values: ChEMBL document CHEMBL3600293, “Design, synthesis and evaluation of MCH receptor 1 antagonists--Part I: Optimization of HTS hits towards an in vivo efficacious tool compound BI 414” (Bioorg Med Chem Lett, 2015)

Key:
in vitro [1] = settings: rat, liver microsomes
Description: Half life in rat liver microsomes

in vitro [2] = settings: human, liver microsomes
Description: Half life in human liver microsomes

Q: For `NC(=O)C1CCN(CCOc2ccc(C#Cc3ccc(-c4ccc(Cl)cc4)cn3)cc2)CC1`, which half-life (in vitro [1]) is on record?
A: Its half-life is 21 min.

Q: What about the half-life (in vitro [2]) of the same compound?
A: The half-life was greater than 90 min.
